One may read the inhibition as the relative decrease from the control value, in per cent. A lower inhibition goes with a response near the control. One may read the IC50 as the concentration that inhibits the measured activity by half.

This is an account of results in ChEMBL document CHEMBL4024791, “Identification of Morpholino-2H-pyrido[3,2-b][1,4]oxazin-3(4H)-ones as Nonsteroidal Mineralocorticoid Antagonists” (J Med Chem, 2018).

One data set addresses CYP3A4 (Homo sapiens, UniProt P08684). Nature of the data set: Inhibition of CYP3A4 (unknown origin) at 3 uM. The data set is classed as ADME.
For another data set, the target named is T1, Androgen receptor (Homo sapiens, UniProt P10275).
T1 sequence (P10275 whole entry): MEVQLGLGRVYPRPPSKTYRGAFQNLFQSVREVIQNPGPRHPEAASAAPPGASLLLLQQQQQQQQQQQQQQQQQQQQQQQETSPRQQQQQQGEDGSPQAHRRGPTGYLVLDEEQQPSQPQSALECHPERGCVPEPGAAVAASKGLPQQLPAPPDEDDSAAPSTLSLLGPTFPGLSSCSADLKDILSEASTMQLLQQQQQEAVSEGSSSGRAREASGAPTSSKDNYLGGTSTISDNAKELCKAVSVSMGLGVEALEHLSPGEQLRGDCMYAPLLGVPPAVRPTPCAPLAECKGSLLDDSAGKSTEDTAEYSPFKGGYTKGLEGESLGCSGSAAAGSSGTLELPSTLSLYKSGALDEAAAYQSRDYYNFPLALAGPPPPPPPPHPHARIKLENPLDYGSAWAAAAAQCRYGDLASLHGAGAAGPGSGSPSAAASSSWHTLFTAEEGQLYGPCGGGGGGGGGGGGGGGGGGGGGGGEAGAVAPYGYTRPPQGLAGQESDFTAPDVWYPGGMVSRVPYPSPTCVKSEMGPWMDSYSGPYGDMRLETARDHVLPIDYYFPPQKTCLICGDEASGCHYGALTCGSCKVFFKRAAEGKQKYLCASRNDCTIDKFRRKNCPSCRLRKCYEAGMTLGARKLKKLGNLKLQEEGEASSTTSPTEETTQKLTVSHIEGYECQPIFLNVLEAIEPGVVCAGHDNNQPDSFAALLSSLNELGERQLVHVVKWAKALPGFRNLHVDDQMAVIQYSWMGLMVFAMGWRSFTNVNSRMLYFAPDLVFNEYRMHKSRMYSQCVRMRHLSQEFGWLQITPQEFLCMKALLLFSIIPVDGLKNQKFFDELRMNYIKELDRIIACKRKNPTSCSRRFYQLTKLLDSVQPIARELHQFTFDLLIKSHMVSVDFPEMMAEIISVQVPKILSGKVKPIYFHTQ
Nature of the data set: Antagonist activity at human GAL4-DBD fused AR ligand binding domain transfected in human Huh7 cells co-expressing GAL4-RE-Luc assessed as reduction in dihydrotestosterone-induced luciferase activity after 16 hrs by luciferase reporter gene assay. The data set is classed as cell-based. (A reporter such as luciferase makes a cellular process visible.)

The target of the next data set is T2, CYP1A2 (Homo sapiens, UniProt P05177).
T2 sequence (P05177 whole entry): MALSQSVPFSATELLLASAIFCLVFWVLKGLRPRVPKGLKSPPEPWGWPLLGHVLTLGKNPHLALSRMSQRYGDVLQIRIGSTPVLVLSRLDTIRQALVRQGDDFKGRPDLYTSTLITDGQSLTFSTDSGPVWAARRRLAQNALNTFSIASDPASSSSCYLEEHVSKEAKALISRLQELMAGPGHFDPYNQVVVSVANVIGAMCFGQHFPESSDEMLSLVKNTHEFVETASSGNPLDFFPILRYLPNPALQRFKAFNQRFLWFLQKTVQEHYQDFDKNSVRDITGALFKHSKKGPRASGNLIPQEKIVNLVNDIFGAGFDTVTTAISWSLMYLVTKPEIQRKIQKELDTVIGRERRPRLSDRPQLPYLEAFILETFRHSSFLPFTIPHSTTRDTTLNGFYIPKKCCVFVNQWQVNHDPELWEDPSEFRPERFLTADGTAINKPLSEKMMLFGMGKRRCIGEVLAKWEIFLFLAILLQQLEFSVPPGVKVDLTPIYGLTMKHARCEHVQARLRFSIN
The data set can be described thus: Inhibition of CYP1A2 (unknown origin) at 3 uM. The data set is classed as ADME.

A further data set addresses T3, Progesterone receptor (Homo sapiens, UniProt P06401).
T3 sequence (P06401 whole entry): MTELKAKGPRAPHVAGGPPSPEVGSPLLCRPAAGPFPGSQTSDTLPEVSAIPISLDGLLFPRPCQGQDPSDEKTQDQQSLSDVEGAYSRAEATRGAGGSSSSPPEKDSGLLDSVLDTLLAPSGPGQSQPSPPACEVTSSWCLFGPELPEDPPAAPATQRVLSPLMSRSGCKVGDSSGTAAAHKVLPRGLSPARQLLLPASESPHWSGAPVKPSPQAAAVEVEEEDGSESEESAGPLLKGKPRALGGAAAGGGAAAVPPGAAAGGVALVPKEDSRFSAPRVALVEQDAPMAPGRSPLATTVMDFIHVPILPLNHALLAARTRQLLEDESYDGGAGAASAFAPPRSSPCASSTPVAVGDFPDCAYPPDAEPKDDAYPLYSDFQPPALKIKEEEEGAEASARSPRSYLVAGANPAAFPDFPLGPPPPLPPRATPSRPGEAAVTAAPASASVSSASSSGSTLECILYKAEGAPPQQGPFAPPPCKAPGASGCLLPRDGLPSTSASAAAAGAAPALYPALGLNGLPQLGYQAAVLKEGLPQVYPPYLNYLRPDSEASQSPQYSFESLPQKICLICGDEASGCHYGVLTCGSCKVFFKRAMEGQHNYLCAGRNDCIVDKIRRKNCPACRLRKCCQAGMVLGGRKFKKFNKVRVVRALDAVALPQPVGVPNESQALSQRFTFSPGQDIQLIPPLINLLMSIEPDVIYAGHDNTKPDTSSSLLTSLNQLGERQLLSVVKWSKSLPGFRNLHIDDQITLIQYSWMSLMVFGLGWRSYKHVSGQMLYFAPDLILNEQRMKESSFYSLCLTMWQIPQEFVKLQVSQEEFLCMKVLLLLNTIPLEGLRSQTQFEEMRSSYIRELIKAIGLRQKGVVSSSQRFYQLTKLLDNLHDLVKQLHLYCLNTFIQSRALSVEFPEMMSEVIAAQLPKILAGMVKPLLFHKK
Nature of the data set: Antagonist activity at PR (unknown origin) by Gal4-based cellular assay.

Another data set has as its target CYP2D6 (Homo sapiens, UniProt P10635). Nature of the data set: Inhibition of CYP2D6 (unknown origin) at 3 uM. The data set is classed as ADME.

Sequence of CYP2D6 (P10635 whole entry): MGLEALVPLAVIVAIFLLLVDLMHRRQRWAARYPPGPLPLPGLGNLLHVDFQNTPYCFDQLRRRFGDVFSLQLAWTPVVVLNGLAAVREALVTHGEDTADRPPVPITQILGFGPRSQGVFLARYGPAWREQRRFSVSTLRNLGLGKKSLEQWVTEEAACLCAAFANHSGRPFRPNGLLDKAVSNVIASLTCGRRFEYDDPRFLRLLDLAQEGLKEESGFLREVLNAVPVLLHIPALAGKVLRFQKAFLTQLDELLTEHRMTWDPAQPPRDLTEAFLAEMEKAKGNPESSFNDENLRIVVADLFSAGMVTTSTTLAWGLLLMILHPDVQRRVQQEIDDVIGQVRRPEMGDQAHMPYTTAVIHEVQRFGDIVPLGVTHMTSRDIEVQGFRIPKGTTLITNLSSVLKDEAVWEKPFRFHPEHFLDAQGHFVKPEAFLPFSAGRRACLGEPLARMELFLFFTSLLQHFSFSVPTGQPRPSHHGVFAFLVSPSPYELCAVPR
Sequence of CYP3A4 (P08684 whole entry): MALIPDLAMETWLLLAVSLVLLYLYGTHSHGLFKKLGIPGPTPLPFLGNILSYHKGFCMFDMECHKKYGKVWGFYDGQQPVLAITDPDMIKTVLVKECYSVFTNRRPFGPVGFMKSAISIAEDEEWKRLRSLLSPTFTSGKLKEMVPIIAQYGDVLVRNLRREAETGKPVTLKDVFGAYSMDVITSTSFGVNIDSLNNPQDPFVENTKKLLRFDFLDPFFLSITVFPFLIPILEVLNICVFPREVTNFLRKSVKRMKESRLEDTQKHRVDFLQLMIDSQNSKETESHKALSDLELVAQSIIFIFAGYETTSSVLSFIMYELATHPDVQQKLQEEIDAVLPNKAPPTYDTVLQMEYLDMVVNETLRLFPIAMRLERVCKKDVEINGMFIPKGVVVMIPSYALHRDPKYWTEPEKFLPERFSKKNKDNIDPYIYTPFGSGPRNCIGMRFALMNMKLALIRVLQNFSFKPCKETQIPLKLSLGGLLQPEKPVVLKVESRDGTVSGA

As to `O=C1COc2ccc(N3CCOC[C@H]3c3ccccc3)cc2N1`, the inhibition at 3 µM at CYP3A4, against CYP1A2 and against CYP2D6 was below 10% in each case. Besides, the IC50 at Androgen receptor and against Progesterone receptor was above 10 µM in each case.
Regarding `C[C@@H]1CN(c2ccc3c(n2)NC(=O)CO3)[C@H](c2ccccc2)CO1`, the inhibition at 3 µM against CYP3A4, against CYP1A2 and against CYP2D6 was below 20% throughout. In addition, the IC50 on Androgen receptor and against Progesterone receptor was above 10 µM each time.
